Source: patent publication US20040063662A1, “Selenophene anti-tumor agents” (priority 1996, published 2004)

Experiments:
K-562 = assay: NCI human tumor cell panel: K-562 (Leukemia); type: cell-based
NCI-H322M = assay: cells; type: cell-based; details: Homo sapiens
HT29 = assay: NCI human tumor cell panel: HT29 (Colon Cancer); type: cell-based; details: HT-29, HT29, read-out: Log10 TGI (converted)
U251 = assay: NCI human tumor cell panel: U251 (CNS Cancer); type: cell-based
MDA-MB-231/ATCC = assay: NCI human tumor cell panel: MDA-MB-231/ATCC (Breast Cancer); type: cell-based; details: Homo sapiens, MDA-MB-231, MDA-MB-231/ATCC
EKVX = assay: NCI human tumor cell panel: EKVX (Non-Small Cell Lung Cancer); type: cell-based
A549/ATCC = assay: NCI human tumor cell panel: A549/ATCC (Non-Small Cell Lung Cancer); type: cell-based
PC-3 = assay: NCI human tumor cell panel: PC-3 (Prostate Cancer); type: cell-based
SK-OV-3 = assay: NCI human tumor cell panel: SK-OV-3 (Ovarian Cancer); type: cell-based
SF-268 = assay: NCI human tumor cell panel: SF-268 (CNS Cancer); type: cell-based
SK-MEL-28 = assay: NCI human tumor cell panel: SK-MEL-28 (Melanoma); type: cell-based
TK-10 = assay: NCI human tumor cell panel: TK-10 (Renal Cancer); type: cell-based
MALME-3M = assay: NCI human tumor cell panel: MALME-3M (Melanoma); type: cell-based; details: Malme-3M, read-out: Log10 GI50 (converted)
SNB-19 = assay: NCI human tumor cell panel: SNB-19 (CNS Cancer); type: cell-based
CAKI-1 = assay: NCI human tumor cell panel: CAKI-1 (Renal Cancer); type: cell-based
RXF-393 = assay: NCI human tumor cell panel: RXF-393 (Renal Cancer); type: cell-based
COLO 205 = assay: NCI human tumor cell panel: COLO 205 (Colon Cancer); type: cell-based; details: COLO 205, read-out: Log10 GI50 (converted)
HCC-2998 = assay: NCI human tumor cell panel: HCC-2998 (Colon Cancer); type: cell-based
KM12 = assay: NCI human tumor cell panel: KM12 (Colon Cancer); type: cell-based
HCT-116 = assay: NCI human tumor cell panel: HCT-116 (Colon Cancer); type: cell-based
OVCAR-3 = assay: NCI human tumor cell panel: OVCAR-3 (Ovarian Cancer); type: cell-based
MOLT-4 = assay: NCI human tumor cell panel: MOLT-4 (Leukemia); type: cell-based
[1] = tested on: panel of sixty different human tumor cell lines; assay: NCI human tumor cell panel: whole panel (mean graph summary)
ACHN = assay: NCI human tumor cell panel: ACHN (Renal Cancer); type: cell-based
NCI-H226 = assay: NCI human tumor cell panel: NCI-H226 (Non-Small Cell Lung Cancer); type: cell-based
HCT-15 = assay: NCI human tumor cell panel: HCT-15 (Colon Cancer); type: cell-based
T-47D = assay: NCI human tumor cell panel: T-47D (Breast Cancer); type: cell-based; details: T47D
NCI-H522 = assay: NCI human tumor cell panel: NCI-H522 (Non-Small Cell Lung Cancer)
HL-60(TB) = assay: NCI human tumor cell panel: HL-60(TB) (Leukemia); type: cell-based
[2] = read-out: Log10 GI50 (converted)
[3] = read-out: Log10 TGI (converted)

OCc1ccc(-c2ccc(-c3ccc[se]3)s2)[se]1 [compound 676631]
GI50 (K-562; K562, K-562, read-out: Log10 GI50 (converted)): 0.102 µM
IC (TGI) (K-562; K562, K-562, read-out: Log10 TGI (converted)): > 100 µM
GI50 (NCI-H322M; [2]): 21.9 µM
IC (TGI) (NCI-H322M; [3]): > 100 µM
IC (TGI) (HT29): > 100 µM
GI50 (U251; U-251, U251, read-out: Log10 GI50 (converted)): 0.0776 µM
IC (TGI) (U251; U-251, U251, read-out: Log10 TGI (converted)): 20 µM
GI50 (MDA-MB-231/ATCC; [2]): 19.1 µM
IC (TGI) (MDA-MB-231/ATCC; [3]): 87.1 µM
GI50 (EKVX; [2]): > 100 µM
IC (TGI) (EKVX; [3]): > 100 µM
GI50 (A549/ATCC; [2]): 58.9 µM
IC (TGI) (A549/ATCC; [3]): > 100 µM
GI50 (PC-3; PC-3, read-out: Log10 GI50 (converted)): 52.5 µM
IC (TGI) (PC-3; PC-3, read-out: Log10 TGI (converted)): > 100 µM
GI50 (SK-OV-3; SK-OV-3, read-out: Log10 GI50 (converted)): 45.7 µM
IC (TGI) (SK-OV-3; SK-OV-3, read-out: Log10 TGI (converted)): > 100 µM
GI50 (SF-268; SF-268, read-out: Log10 GI50 (converted)): 23.4 µM
IC (TGI) (SF-268; SF-268, read-out: Log10 TGI (converted)): 64.6 µM
GI50 (SK-MEL-28; SK-MEL-28, read-out: Log10 GI50 (converted)): 66.1 µM
IC (TGI) (SK-MEL-28; SK-MEL-28, read-out: Log10 TGI (converted)): > 100 µM
GI50 (TK-10; TK-10, read-out: Log10 GI50 (converted)): 0.0501 µM
IC (TGI) (TK-10; TK-10, read-out: Log10 TGI (converted)): 0.372 µM
GI50 (MALME-3M): > 100 µM
GI50 (SNB-19; SNB-19, read-out: Log10 GI50 (converted)): 17.4 µM
IC (TGI) (SNB-19; SNB-19, read-out: Log10 TGI (converted)): > 100 µM
GI50 (CAKI-1; CAKI-1, read-out: Log10 GI50 (converted)): 0.0309 µM
IC (TGI) (CAKI-1; CAKI-1, read-out: Log10 TGI (converted)): 0.191 µM
GI50 (RXF-393; RXF-393, read-out: Log10 GI50 (converted)): 72.4 µM
IC (TGI) (RXF-393; RXF-393, read-out: Log10 TGI (converted)): > 100 µM
GI50 (COLO 205): 0.288 µM
GI50 (HCC-2998; HCC-2998, read-out: Log10 GI50 (converted)): 42.7 µM
IC (TGI) (HCC-2998; HCC-2998, read-out: Log10 TGI (converted)): > 100 µM
GI50 (KM12; KM12, read-out: Log10 GI50 (converted)): 26.9 µM
IC (TGI) (KM12; KM12, read-out: Log10 TGI (converted)): > 100 µM
GI50 (HCT-116; HCT-116, read-out: Log10 GI50 (converted)): 0.0537 µM
IC (TGI) (HCT-116; HCT-116, read-out: Log10 TGI (converted)): > 100 µM
GI50 (OVCAR-3; OVCAR-3, read-out: Log10 GI50 (converted)): 0.0275 µM
IC (TGI) (OVCAR-3; OVCAR-3, read-out: Log10 TGI (converted)): 0.138 µM
GI50 (MOLT-4; MOLT-4, read-out: Log10 GI50 (converted)): > 100 µM
IC (TGI) (MOLT-4; MOLT-4, read-out: Log10 TGI (converted)): > 100 µM
GI50 ([1]; Homo sapiens, read-out: Log10 GI50, MG_MID, mean over the panel (converted)): 6.61 µM
Log10 LC50, MG_MID ([1]; mean over the panel): −4.15
Log10 TGI, MG_MID ([1]; mean over the panel): −4.47
Log10 TGI, Delta ([1]; whole panel): 2.61
Log10 TGI, Range ([1]; whole panel): 3.08
GI50 (ACHN; [2]): > 100 µM
IC (TGI) (ACHN; [3]): > 100 µM
GI50 (NCI-H226; NCI-H226, read-out: Log10 GI50 (converted)): 0.0501 µM
IC (TGI) (NCI-H226; NCI-H226, read-out: Log10 TGI (converted)): 0.182 µM
GI50 (HCT-15; HCT-15, read-out: Log10 GI50 (converted)): 27.5 µM
IC (TGI) (HCT-15; HCT-15, read-out: Log10 TGI (converted)): > 100 µM
GI50 (T-47D; [2]): 0.676 µM
IC (TGI) (T-47D; [3]): > 100 µM
GI50 (NCI-H522; NCI-H522, read-out: Log10 GI50 (converted)): 5.25 µM
IC (TGI) (NCI-H522; NCI-H522, read-out: Log10 TGI): 21.4 µM
GI50 (HL-60(TB); [2]): > 100 µM
IC (TGI) (HL-60(TB); read-out: Log10 TGI): > 100 µM
